Values of other authors in US6841363B2, “Preparation of capped mRNA” (Emory University, priority 2000, dated 2005).

Legend:
[1] = intrinsic fluorescence, m7GTP; W56Y compared with wild-type, 'shown therein' (Hsu et al. 2000 / U.S. Pat. No. 6,232,442)
m7GTP = conditions: previous study (U.S. Pat. No. 6,232,442); human eIF4E and mutants; read-out: Kd (affinity for m7GTP)

Kd [1]: 318 nM | Kd (m7GTP): 1200 nM
Substance: wild-type: abundant form of human eIF4E (eukaryotic initiation factor 4E) previously isolated and characterized
